# Test results taken from patent US20240024324A1, “KINASE INHIBITOR COMBINATIONS FOR CANCER TREATMENT” (Merck Patent GmbH, priority 2020, published 2024).
# Tests used:
# GSC7-2 [1] = experiment: GSC lines: sensitivity in vitro (IC50); format: cell-based
# Method: (§1) FIG. 1: In vitro analyses in GSC lines. (A) Western blot analysis of protein expression; (B) IC50 of M2698; (C) IC50 of pimasertib; and (D) apoptotic GSC11, GSC7-2, and GSC17 cells after treatment with M2698, pimasertib, or M2698+pimasertib combination. Single agents were tested at their IC50; half the IC50 of each compound was used for the combination.
# (§2) All GSC lines expressed Akt. Relatively high pAkt expression in GSC17, GSC7-2, GSC231, GSC11, GSC20, GSC6-27, and GSC8-11 lines compared with GSC272 and GSC267 (FIG. 1A).
# GSC20 [2] = experiment: GSC lines: sensitivity in vitro (IC50); format: cell-based
# Method: as §1, §2
# GSC17 [3] = experiment: GSC lines: sensitivity in vitro (IC50); format: cell-based
# Method: as §1, §2
# GSC6-27 [4] = experiment: GSC lines: sensitivity in vitro (IC50); format: cell-based; settings: GSC6-27 line in vitro
# Method: as §1, §2
# GSC231 [5] = experiment: GSC lines: sensitivity in vitro (IC50); format: cell-based; settings: GSC231 line in vitro
# Method: as §1, §2
# GSC11 [6] = experiment: GSC lines: sensitivity in vitro (IC50); format: cell-based
# Method: as §1, §2
# GSC7-2 [7] = experiment: Orthotopic GSC xenograft model; format: in vivo, mice
# Method: (§3) The in vivo effects of M2698 and pimasertib, alone and in combination, were assessed in the GSC models after orthotopic implantation into mice. Treatment duration and time of euthanasia post-implantation was 5-10 weeks. Endpoints were expression of PD markers pS6 and pERK, proliferation marker Ki67, apoptosis as measured by TUNEL, tumor volume and survival.
# GSC20 [8] = experiment: Orthotopic GSC xenograft model; format: in vivo, mice
# Method: as §3
# GSC17 [9] = experiment: Orthotopic GSC xenograft model; format: in vivo, mice
# Method: as §3
# GSC272 [10] = experiment: Orthotopic GSC xenograft model; format: in vivo, mice
# Method: as §3
# GSC6-27 [11] = experiment: Orthotopic GSC xenograft model; format: in vivo, mice
# Method: as §3
# GSC231 [12] = experiment: Orthotopic GSC xenograft model; format: in vivo, mice
# Method: as §3
# GSC11 [13] = experiment: Orthotopic GSC xenograft model; format: in vivo, mice
# Method: as §3
# GSC7-2 [14] = experiment: Induction of apoptosis in GSC lines in vitro; format: cell-based
# Method: (§4) FIG. 1: In vitro analyses in GSC lines. (A) Western blot analysis of protein expression; (B) IC50 of M2698; (C) IC50 of pimasertib; and (D) apoptotic GSC11, GSC7-2, and GSC17 cells after treatment with M2698, pimasertib, or M2698+pimasertib combination. […]
# (§5) Induction of apoptosis by M2698, pimasertib, and the combination was measured in three of five GSC lines that were sensitive to M2698 in vitro.
# GSC17 [15] = experiment: Induction of apoptosis in GSC lines in vitro; format: cell-based
# Method: as §4, §5
# GSC11 [16] = experiment: Induction of apoptosis in GSC lines in vitro; format: cell-based
# Method: as §4, §5
# [17] = system: human cholangiocarcinoma cancer PDX; experiment: PDX models of cholangiocarcinoma; format: in vivo, mice; settings: 20 mg/kg each agent QD PO
# Description: The objective of this experiment was to evaluate the antitumor activity of M2698 alone and in combination with Pimasertib in a panel of 13 Patient-Derived Xenograft models representing human cholangiocarcinoma cancer derived from Chinese patients in immune-deficient mice.
# Vehicle: 0.5% Methocel/0.25% Tween20 in Milli-Q Water. Tumors from three untreated mice were collected as satellite samples when reached a tumor volume between 300-500 mm3.
# GSC272 [18] = experiment: GSC lines: sensitivity in vitro (IC50); format: cell-based; settings: GSC272 line in vitro
# Method: FIG. 1: In vitro analyses in GSC lines. (A) Western blot analysis of protein expression; (B) IC50 of […]; (C) IC50 of pimasertib; and (D) apoptotic GSC11, GSC7-2, and GSC17 cells after treatment with […], pimasertib, or […]+pimasertib combination. Single agents were tested at their IC50; half the IC50 of each compound was used for the combination. In vitro IC50 data were used to select GSC lines for in vivo studies; […] All GSC lines expressed Akt. Relatively high pAkt expression in GSC17, GSC7-2, GSC231, GSC11, GSC20, GSC6-27, and GSC8-11 lines compared with GSC272 and GSC267 (FIG. 1A). […] (FIG. 1B).
# [19] = system: Non-Small Lung Cancer (NSCLC) Brain Metastases PDX; experiment: PDX models of NSCLC brain metastases; format: in vivo
# Colorectal Cancer PDX = experiment: 75 PDX models of colorectal cancer; format: in vivo; settings: CRC PDX; M2698 25 mg/kg po qd, Pimasertib 20 mg/kg po qd, Cetuximab 20 mg/kg ip q2w
# Description: Of the 75 models, 25 were wild type, 25 KRas mutant, and 25 BRaf mutant.
# [20] = in vivo; cited from earlier work
# [21] = system: Her2+/HR− Breast Cancer PDX; experiment: PDX models of Her2+/HR- breast cancer; format: in vivo
compound,measurement,setting,value
"O=C(NCC(O)CO)c1ccncc1Nc1ccc(I)cc1F (stereo not drawn) [pimasertib, N-(2,3-dihydroxy-propyl)-3-(2-fluoro-4-iodo-phenylamino)-isonicotinamide, reference compound]",sensitivity in vitro,GSC7-2 [1]; GSC7-2 line,not sensitive
same,IC50,GSC7-2 [1]; GSC7-2 line in vitro,> 2000 nM
same,sensitivity in vitro,GSC20 [2]; GSC20 line,insensitivity
same,IC50,GSC20 [2]; GSC20 line in vitro,> 2000 nM
same,sensitivity in vitro,GSC17 [3]; GSC17 line,moderately sensitive
same,IC50,GSC17 [3]; GSC17 line in vitro,< 2000 nM
same,IC50,GSC6-27 [4],> 2000 nM
same,IC50,GSC231 [5],< 2000 nM
same,sensitivity in vitro,GSC11 [6]; GSC11 line,most sensitive
same,IC50,GSC11 [6]; GSC11 line in vitro,< 2000 nM
same,pERK expression in orthotopic tumor,"GSC7-2 [7]; GSC7-2, PD marker",significantly reduced pERK
same,median survival,"GSC7-2 [7]; GSC7-2 orthotopic, vs vehicle",no significant effects on survival
same,tumor volume / tumor growth,"GSC7-2 [7]; GSC7-2 orthotopic, vs vehicle",significant tumor growth inhibition
same,number of apoptotic cells/field,"GSC7-2 [7]; GSC7-2 xenografts, after 10 weeks",65.00±60.80 cells/field
same,apoptosis in xenografts vs control,"GSC7-2 [7]; GSC7-2 xenografts, at 7.5 weeks","Neither M2698, pimasertib, nor combination treatment significantly affected apoptosis"
same,pERK expression in orthotopic tumor,"GSC20 [8]; GSC20, PD marker",significant effects of pimasertib treatment on pERK protein were not seen
same,median survival,"GSC20 [8]; GSC20 orthotopic, vs vehicle",no significant effects on survival
same,tumor volume / tumor growth,"GSC20 [8]; GSC20 orthotopic, vs vehicle",had not responded
same,pERK expression in orthotopic tumor,"GSC17 [9]; GSC17, PD marker",significantly reduced pERK
same,median survival,"GSC17 [9]; GSC17 orthotopic, vs vehicle",no significant effects on survival
same,tumor volume / tumor growth,"GSC17 [9]; GSC17 orthotopic, vs vehicle",not affected
same,proliferation (Ki67 by immunohistochemistry),"GSC17 [9]; GSC17 tumor sections, compared to vehicle",significantly reduced proliferation
same,pERK expression in orthotopic tumor,"GSC272 [10]; GSC272, PD marker",significantly reduced pERK
same,pS6 expression in orthotopic tumor,"GSC272 [10]; GSC272, PD marker",significantly reduced pS6
same,"cross-pathway reduction of pS6, trend over time","GSC272 [10]; GSC272, from 7.5-10 weeks",diminished
same,median survival,"GSC272 [10]; GSC272 orthotopic, vs vehicle",no significant effects on survival
same,tumor volume / tumor growth,"GSC272 [10]; GSC272 orthotopic, vs vehicle",significant tumor growth inhibition
same,pERK expression in orthotopic tumor,"GSC6-27 [11]; GSC6-27, PD marker",significantly reduced pERK
same,median survival,"GSC6-27 [11]; GSC6-27 orthotopic, vs vehicle",no significant effects on survival
same,tumor volume / tumor growth,"GSC6-27 [11]; GSC6-27 orthotopic, vs vehicle",significant tumor growth inhibition
same,pERK expression in orthotopic tumor,"GSC231 [12]; GSC231, PD marker",significantly reduced pERK
same,pS6 expression in orthotopic tumor,"GSC231 [12]; GSC231, PD marker",significantly reduced pS6
same,"cross-pathway reduction of pS6, trend over time","GSC231 [12]; GSC231, from 7.5-10 weeks",diminished
same,median survival,"GSC231 [12]; GSC231 orthotopic, vs vehicle",no significant effects on survival
same,tumor volume / tumor growth,"GSC231 [12]; GSC231 orthotopic, vs vehicle",trend towards a significant response
same,pERK expression in orthotopic tumor,"GSC11 [13]; GSC11, PD marker",significantly reduced pERK
same,median survival,"GSC11 [13]; GSC11 orthotopic, vs vehicle",no significant effects on survival
same,apoptotic percentage,"GSC7-2 [14]; GSC7-2, monotherapy at 2×IC50",17%
same,apoptotic percentage,"GSC7-2 [14]; GSC7-2, monotherapy at the IC50",13%
same,apoptotic percentage,"GSC17 [15]; GSC17, monotherapy at 2×IC50",12%
same,apoptotic percentage,"GSC17 [15]; GSC17, monotherapy at the IC50",11%
same,apoptotic percentage,"GSC11 [16]; GSC11, monotherapy at 2×IC50",62%
same,apoptotic percentage,"GSC11 [16]; GSC11, monotherapy at the IC50",56%
same,"tumor stasis, number of tumor samples",[17],1/12
same,"tumor stasis, share of tumor samples",[17],8%
same,IC50,GSC272 [18],> 2000 nM
same,tumor control rate (TCR),[19],16%
same,tumor control rate (TCR),Colorectal Cancer PDX,32%
same,"tumor control rate (TCR), models controlled/models",Colorectal Cancer PDX,24/74
same,blood-brain barrier penetration,[20],brain-penetrant
same,tumor volume over the duration of the experiment,[21],stasis of the tumor volume
